The record followed here is patent publication US20230331803A1, “CO-AGONISTS OF THE GLP-1 AND AMYLIN RECEPTORS” (priority 2020, published 2023).

The target in assay [1] is T1, human amylin receptor (hAmyR3) (Homo sapiens, UniProt O60896+P30988).
T1 construct: host or cells: BHK cells (Hollex-1 line: human calcitonin receptor (a) + CRE-Luc), further transfected with human RAMP3
Briefly: Human amylin receptor in vitro potency assay (CRE-luciferase reporter, BHK cells).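 Further: BHK cells expressing human calcitonin receptor plus RAMP3 (amylin-3 receptor) with a CRE-luciferase reporter, agonist activity read as luminescence from cAMP-driven transcription, 7-point serial dilutions.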 Type of assay: cell-based.

In another assay the test system is Sprague Dawley (SD) rats. Briefly: Acute food intake in ad libitum fed rats after a single subcutaneous administration.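 Further: food intake monitored in the HM2 system, three rats per cage kept on a reversed light cycle, with food and water freely available after the subcutaneous dose.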 Type of assay: in vivo, rat. The settings on record: Table 6a, rat, single administration.
In the next assay the target is T2, human GLP-1 receptor (Homo sapiens, UniProt P43220).
T2 construct: expressed in transfected cells; host or cells: BHK (Baby Hamster Kidney) cells, clone BHK 467-12A KZ-10, stably transfected, with CRE-luciferase reporter
Briefly: Human GLP-1 receptor in vitro potency assay (CRE-luciferase reporter, BHK cells). Type of assay: cell-based. (A reporter such as luciferase makes a cellular process visible.)

Where [2] appears, read: Table 4a, BHK hAmyR3/CRE-Luc cells, 3 hours, read-out: Human AmyR3 potency [EC50 (pM)].
Setting [3] is: Table 4a, BHK cells expressing human GLP-1R, CRE-Luc, 3 hours, read-out: Human GLP-1R potency [EC50 (pM)].

Read-outs that look alike come from different tables or passages of the source. Starred links: 1 amine or outer side, 2 acyl side, 3 side chain; linkers in the order of their positions; H or OH if unused. Non-standard residues stand in square brackets, D forms with d. Groups on a side chain read outwards from the residue. *: point of attachment. Decanoyl(10-(4-HOOC-PhO)) = O=C(O)c1ccc(OCCCCCCCCCC(=O)*)cc1; C20 diacid = O=C(O)CCCCCCCCCCCCCCCCCCC(=O)*; C18 diacid = O=C(O)CCCCCCCCCCCCCCCCC(=O)*; γGlu = O=C(O)[C@H](CCC(=O)[*:2])N[*:1]; εLys = N[C@@H](CCCCN[*:1])C(=O)[*:2]; Trx = NC[C@H]1CC[C@H](C(=O)O)CC1; AEEA = NCCOCCOCC(=O)O; Aib = CC(C)(N)C(=O)O

T1 sequence (P30988 25-474): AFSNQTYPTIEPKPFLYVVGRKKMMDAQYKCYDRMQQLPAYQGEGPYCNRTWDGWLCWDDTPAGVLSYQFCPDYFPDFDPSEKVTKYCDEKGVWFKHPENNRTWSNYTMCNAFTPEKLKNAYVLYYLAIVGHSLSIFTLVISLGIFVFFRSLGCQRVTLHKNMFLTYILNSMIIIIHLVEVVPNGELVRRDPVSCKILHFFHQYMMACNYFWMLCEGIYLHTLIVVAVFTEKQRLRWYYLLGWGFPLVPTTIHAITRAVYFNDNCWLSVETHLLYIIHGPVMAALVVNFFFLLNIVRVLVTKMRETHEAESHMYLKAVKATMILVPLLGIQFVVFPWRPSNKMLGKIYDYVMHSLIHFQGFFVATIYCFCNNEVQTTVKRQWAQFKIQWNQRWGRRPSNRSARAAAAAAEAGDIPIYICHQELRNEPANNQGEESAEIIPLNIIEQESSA
T1 sequence (O60896 24-148): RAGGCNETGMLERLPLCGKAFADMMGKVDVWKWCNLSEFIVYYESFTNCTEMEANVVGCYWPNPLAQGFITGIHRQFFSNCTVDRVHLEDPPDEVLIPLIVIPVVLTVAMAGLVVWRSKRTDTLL
T2 sequence (P43220 24-463): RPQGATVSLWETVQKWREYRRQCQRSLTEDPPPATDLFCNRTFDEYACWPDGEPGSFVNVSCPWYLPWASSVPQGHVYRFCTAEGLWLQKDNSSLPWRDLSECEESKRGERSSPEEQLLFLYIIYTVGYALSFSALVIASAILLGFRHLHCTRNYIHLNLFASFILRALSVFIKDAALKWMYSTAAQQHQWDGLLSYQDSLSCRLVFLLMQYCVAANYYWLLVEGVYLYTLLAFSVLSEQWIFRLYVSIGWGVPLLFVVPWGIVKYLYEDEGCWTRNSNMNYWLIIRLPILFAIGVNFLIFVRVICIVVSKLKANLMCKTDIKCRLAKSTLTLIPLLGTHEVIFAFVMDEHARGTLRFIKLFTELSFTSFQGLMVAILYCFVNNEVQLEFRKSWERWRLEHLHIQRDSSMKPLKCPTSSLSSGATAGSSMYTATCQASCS

Usually EC50 stands for the midpoint of the concentration-response curve. For the substance “H-H[Aib]EGTFTSDVSSYLEGQAAK([AEEA-AEEA-γGlu-C18 diacid])EFIAWLVRGRGGGGGGGGGEASELSTAALGRLSAELHELATLPRTETGSGSP-NH2 [Compound 0052]”, the EC50 in assay [1] (setting [2]) was determined as 19.4 pM. In addition, in the assay with Sprague Dawley (SD) rats, the “Food intake relative to vehicle (%) 0-24 hr, 10 nmol/kg” value turned out to be 42% and the “Food intake relative to vehicle (%) 24-48 hr, 10 nmol/kg” value is 86%. Further, the EC50 at human GLP-1 receptor (setting [3]) is 17 pM.
Consider “H-H[Aib]EGTFTSDVSSYLEGQAAK([AEEA-AEEA-γGlu-Trx-C20 diacid])EFIAWLVRGRGGGGGGGGGEASELSTAALGRLSAELHELATLPRTETGSGSP-NH2 [Compound 0095]”, for which the EC50 in assay [1] (setting [2]) turned out to be 6.6 pM. Besides, in the assay on Sprague Dawley (SD) rats, the “Food intake relative to vehicle (%) 0-24 hr, 10 nmol/kg” value was 55% and the “Food intake relative to vehicle (%) 24-48 hr, 10 nmol/kg” value turned out to be 95%. In addition, the EC50 at human GLP-1 receptor (setting [3]) came to 7.4 pM.
Consider “H-H[Aib]EGTFTSDVSSYLEGQAAK([εLys-AEEA-AEEA-γGlu-C18 diacid])EFIAWLVRGRGGGEASELSTAALGRLSAELHELATLPRTETGSGSP-NH2 [Compound 0044]”, for which the EC50 in assay [1] (setting [2]) was 9.1 pM. Besides, in the assay on Sprague Dawley (SD) rats, the “Food intake relative to vehicle (%) 0-24 hr, 10 nmol/kg” value is reported as 40% and the “Food intake relative to vehicle (%) 24-48 hr, 10 nmol/kg” value came out at 82%. Besides, the EC50 at human GLP-1 receptor (setting [3]) was determined as 16 pM.
For the substance “H-H[Aib]EGTFTSDVSSYLEGQAAKEFIAWLVRGRK([AEEA-AEEA-γGlu-C18 diacid])GGEASELSTAALGRLSAELHELATLPRTETGSGSP-NH2 [Compound 0042]”, in assay [1] (setting [2]), the EC50 came to 10.8 pM. For the same substance, in the assay with Sprague Dawley (SD) rats, the “Food intake relative to vehicle (%) 0-24 hr, 10 nmol/kg” value is on record as 52% and the “Food intake relative to vehicle (%) 24-48 hr, 10 nmol/kg” value came to 101%. Besides, at human GLP-1 receptor (setting [3]), the EC50 came to 16.2 pM.
In the case of “H-H[Aib]EGTFTSDVSSYLEGQAAREFIAWLVRGRK([AEEA-AEEA-γGlu-C18 diacid])GGGGEASELSTAALGRLSAELHELATLPRTETGSGSP-NH2 [Compound 0151]”, the figures for the EC50 (in assay [1] (setting [2]); at human GLP-1 receptor (setting [3])) were 9.5 pM and 10.4 pM, respectively. The “Food intake relative to vehicle (%) 0-24 hr, 10 nmol/kg” value in the assay on Sprague Dawley (SD) rats amounted to 29%. Besides, the “Food intake relative to vehicle (%) 24-48 hr, 10 nmol/kg” value in the assay with Sprague Dawley (SD) rats is 70%.
For the substance “HWEGTFTSDVSSYLEEK([εLys-AEEA-AEEA-γGlu-Trx-C20 diacid])AAREFIEWLVRGRGEASELSTAALGRLSAELHELATLPRTETGSGSP-NH2 [Compound 0434]”, the EC50 in assay [1] (setting [2]) was found to be 13.9 pM; on human GLP-1 receptor (setting [3]), 11.8 pM. In the assay on Sprague Dawley (SD) rats, the “Food intake relative to vehicle (%) 0-24 hr, 10 nmol/kg” value came out at 39%. Also, the “Food intake relative to vehicle (%) 24-48 hr, 10 nmol/kg” value with Sprague Dawley (SD) rats is recorded as 105%.
Substance “HWEGTFTSDVSSYLEEQAARK([AEEA-AEEA-γGlu-Decanoyl(10-(4-HOOC-PhO))])FIEWLVRGK([AEEA-AEEA-γGlu-Decanoyl(10-(4-HOOC-PhO))])GEGGGGGEASELSTAALGRLSAELHELATLPRTETGSGSP-NH2 [Compound 0100]” yielded an EC50 in assay [1] of 30.4 pM. In the assay with Sprague Dawley (SD) rats, the “Food intake relative to vehicle (%) 0-24 hr, 10 nmol/kg” value amounted to 85% and the “Food intake relative to vehicle (%) 24-48 hr, 10 nmol/kg” value was 86%. At human GLP-1 receptor, this substance returned an EC50 of 6.8 pM.
Consider “H[Aib]EGTFTSDVSSYLEEQAARK([AEEA-AEEA-γGlu-C18 diacid])FIAWLVRGRK([AEEA-AEEA-γGlu-C18 diacid])GGEASELSTAALGRLSAELHELATLPRTETGSGSP-NH2 [Compound 0116]”, for which the EC50 is 21.7 pM in assay [1] (setting [2]) and 1.5 pM at human GLP-1 receptor (setting [3]). In the assay with Sprague Dawley (SD) rats, the “Food intake relative to vehicle (%) 0-24 hr, 10 nmol/kg” value was determined as 83%. In addition, the “Food intake relative to vehicle (%) 24-48 hr, 10 nmol/kg” value in the assay with Sprague Dawley (SD) rats is reported as 82%.
On the same counts, the results for “H[Aib]EGTFTSDVSSYLEEQAARK([γGlu-C18 diacid])FIAWLVRGRK([γGlu-C18 diacid])EASELSTAALGRLSAELHELATLPRTETGSGSP-NH2 [Compound 0131]” are 14.5 pM, 16.1 pM, 70% and 80%.
